From patent US6914045B2, “Glycopeptide antibiotics” (Wyeth Holdings Corporation, priority 2001, dated 2005)
≈ marks a conversion by molar mass, not a printed value.

Columns and labels:
Assay in all cases: in vitro antibacterial evaluation, MIC by broth dilution
Format in all cases: cell-based
Enterococcus sp. = details: broth dilution, 18 hours at 35° C.
Procedure, shortened: (§1)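 Following National Committee for Clinical Laboratory Standards recommendations (M7-A2), susceptibility was measured by dilution in Muller-Hinton II […]. Bacteria were seeded at 5×10^5 CFU/mL against compound concentrations from 64 down to 0.06 μg/mL.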

Escherichia coli = details: 18 hours at 35° C.
Procedure, shortened: as §1

Staphylococcus sp. = details: broth dilution, 18 hours at 35° C.
Procedure, shortened: as §1

Streptococcus sp. = details: broth dilution, 18 hours at 35° C.
Procedure, shortened: as §1

SMILES: COC1CCC2(C)C(CCC3C2CCC2(C)C(C(C)CCC4OCC5OC(OC6C(CO)OC(Oc7ccc(CC8NC(=O)C(C(C)c9ccccc9)NC(=O)CNC(=O)C(CO)NC(=O)C(C(O)C9CNC(=N)N9C9OC(CO)C(O)C(O)C9O)NC(=O)C(C(O)C9CNC(=N)N9)NC8=O)cc7)C(O)C6O)C(O)C(O)C5O4)CCC32)C1 (stereo not shown) [Example 130]
- MIC Enterococcus avium (GC 4558) (Enterococcus sp.; Enterococcus avium (GC 4558)): 16 µg/mL (≈ 9.69 µM)
- MIC Enterococcus faecalis (ATCC 29212) (Enterococcus sp.; Enterococcus faecalis (ATCC 29212)): 32 µg/mL (≈ 19.4 µM)
- MIC Enterococcus faecalis (GC 2242) (Enterococcus sp.; Enterococcus faecalis (GC 2242)): 32 µg/mL (≈ 19.4 µM)
- MIC Enterococcus faecalis (GC 2691) (Enterococcus sp.; Enterococcus faecalis (GC 2691)): 32 µg/mL (≈ 19.4 µM)
- MIC Enterococcus faecalis (GC 3059) (Enterococcus sp.; Enterococcus faecalis (GC 3059)): 64 µg/mL (≈ 38.7 µM)
- MIC Enterococcus faecalis (GC 4552) (Enterococcus sp.; Enterococcus faecalis (GC 4552)): 32 µg/mL (≈ 19.4 µM)
- MIC Enterococcus faecalis (GC 4553) (Enterococcus sp.; Enterococcus faecalis (GC 4553)): 8 µg/mL (≈ 4.84 µM)
- MIC Enterococcus faecalis (GC 4554) (Enterococcus sp.; Enterococcus faecalis (GC 4554)): 32 µg/mL (≈ 19.4 µM)
- MIC Enterococcus faecalis (GC 6189) (Enterococcus sp.; Enterococcus faecalis (GC 6189)): 32 µg/mL (≈ 19.4 µM)
- MIC Enterococcus faecium (GC 2243) (Enterococcus sp.; Enterococcus faecium (GC 2243)): 8 µg/mL (≈ 4.84 µM)
- MIC Enterococcus faecium (GC 4556) (Enterococcus sp.; Enterococcus faecium (GC 4556)): 64 µg/mL (≈ 38.7 µM)
- MIC Enterococcus faecium (GC 4557) (Enterococcus sp.; Enterococcus faecium (GC 4557)): 32 µg/mL (≈ 19.4 µM)
- MIC Enterococcus faecalis (ATCC 29212) (Enterococcus sp.; strain ATCC 29212): 32 µg/mL (≈ 19.4 µM)
- MIC Enterococcus faecalis (GC 2242) (Enterococcus sp.; strain GC 2242): 32 µg/mL (≈ 19.4 µM)
- MIC Enterococcus faecium (GC 2243) (Enterococcus sp.; strain GC 2243): 8 µg/mL (≈ 4.84 µM)
- MIC Enterococcus faecalis (GC 2691) (Enterococcus sp.; strain GC 2691): 32 µg/mL (≈ 19.4 µM)
- MIC Enterococcus faecalis (GC 3059) (Enterococcus sp.; strain GC 3059): 64 µg/mL (≈ 38.7 µM)
- MIC Enterococcus faecalis (GC 4552) (Enterococcus sp.; strain GC 4552): 32 µg/mL (≈ 19.4 µM)
- MIC Enterococcus faecalis (GC 4553) (Enterococcus sp.; strain GC 4553): 8 µg/mL (≈ 4.84 µM)
- MIC Enterococcus faecalis (GC 4554) (Enterococcus sp.; strain GC 4554): 32 µg/mL (≈ 19.4 µM)
- MIC Enterococcus faecium (GC 4556) (Enterococcus sp.; strain GC 4556): 64 µg/mL (≈ 38.7 µM)
- MIC Enterococcus faecium (GC 4557) (Enterococcus sp.; strain GC 4557): 32 µg/mL (≈ 19.4 µM)
- MIC Enterococcus avium (GC 4558) (Enterococcus sp.; strain GC 4558): 16 µg/mL (≈ 9.69 µM)
- MIC Enterococcus faecalis (GC 6189) (Enterococcus sp.; strain GC 6189): 32 µg/mL (≈ 19.4 µM)
- MIC Escherichia coli (ATCC 25922) (Escherichia coli; strain ATCC 25922): >64 µg/mL
- MIC Escherichia coli (GC 4559) (Escherichia coli; strain GC 4559): >64 µg/mL
- MIC Escherichia coli (GC 4560) (Escherichia coli; strain GC 4560): 64 µg/mL (≈ 38.7 µM)
- MIC Staphylococcus aureus (ATCC 29213) (Staphylococcus sp.): 32 µg/mL (≈ 19.4 µM)
- MIC Staphylococcus aureus (GC 1131) (Staphylococcus sp.): 32 µg/mL (≈ 19.4 µM)
- MIC Staphylococcus aureus (GC 3051) (Staphylococcus sp.): 32 µg/mL (≈ 19.4 µM)
- MIC Staphylococcus aureus (GC 3053) (Staphylococcus sp.): 32 µg/mL (≈ 19.4 µM)
- MIC Staphylococcus aureus (GC 4541) (Staphylococcus sp.): 32 µg/mL (≈ 19.4 µM)
- MIC Staphylococcus aureus (GC 4542) (Staphylococcus sp.): 32 µg/mL (≈ 19.4 µM)
- MIC Staphylococcus aureus (GC 4544) (Staphylococcus sp.): 32 µg/mL (≈ 19.4 µM)
- MIC Staphylococcus aureus (GC 4545) (Staphylococcus sp.): 32 µg/mL (≈ 19.4 µM)
- MIC Staphylococcus aureus (GC 1131) (Staphylococcus sp.; inoculum 5×10^5 CFU/mL, strain GC 1131): 32 µg/mL (≈ 19.4 µM)
- MIC Staphylococcus aureus (ATCC 29213) (Staphylococcus sp.; strain ATCC 29213): 32 µg/mL (≈ 19.4 µM)
- MIC Staphylococcus aureus (GC 3051) (Staphylococcus sp.; strain GC 3051): 32 µg/mL (≈ 19.4 µM)
- MIC Staphylococcus aureus (GC 3053) (Staphylococcus sp.; strain GC 3053): 32 µg/mL (≈ 19.4 µM)
- MIC Staphylococcus aureus (GC 4541) (Staphylococcus sp.; strain GC 4541): 32 µg/mL (≈ 19.4 µM)
- MIC Staphylococcus aureus (GC 4542) (Staphylococcus sp.; strain GC 4542): 32 µg/mL (≈ 19.4 µM)
- MIC Staphylococcus aureus-SMITH (GC 4543) (Staphylococcus sp.; strain GC 4543): 32 µg/mL (≈ 19.4 µM)
- MIC Staphylococcus aureus (GC 4544) (Staphylococcus sp.; strain GC 4544): 32 µg/mL (≈ 19.4 µM)
- MIC Staphylococcus aureus (GC 4545) (Staphylococcus sp.; strain GC 4545): 32 µg/mL (≈ 19.4 µM)
- MIC Staphylococcus haemolyticus (GC 4546) (Staphylococcus sp.; strain GC 4546): 32 µg/mL (≈ 19.4 µM)
- MIC Coagulase Negative Staphylococcus (GC 4547) (Staphylococcus sp.; strain GC 4547): 32 µg/mL (≈ 19.4 µM)
- MIC Coagulase Negative Staphylococcus (GC 4548) (Staphylococcus sp.; strain GC 4548): 32 µg/mL (≈ 19.4 µM)
- MIC Coagulase Negative Staphylococcus (GC 4549) (Staphylococcus sp.; strain GC 4549): 16 µg/mL (≈ 9.69 µM)
- MIC Coagulase Negative Staphylococcus (GC 4551) (Staphylococcus sp.; strain GC 4551): 32 µg/mL (≈ 19.4 µM)
- MIC Coagulase Negative Staphylococcus (GC 6257) (Staphylococcus sp.; strain GC 6257): 32 µg/mL (≈ 19.4 µM)
- MIC Staphylococcus aureus-SMITH (GC 4543) (Staphylococcus sp.; strain SMITH GC 4543): 32 µg/mL (≈ 19.4 µM)
- MIC Streptococcus agalactiae (GC 4564) (Streptococcus sp.; Streptococcus agalactiae (GC 4564)): 8 µg/mL (≈ 4.84 µM)
- MIC Streptococcus pneumoniae (ATCC 6301) (Streptococcus sp.; Streptococcus pneumoniae (ATCC 6301)): 8 µg/mL (≈ 4.84 µM)
- MIC Streptococcus pneumoniae (GC 1894) (Streptococcus sp.; Streptococcus pneumoniae (GC 1894)): 1 µg/mL (≈ 0.605 µM)
- MIC Streptococcus pneumoniae (GC 4565) (Streptococcus sp.; Streptococcus pneumoniae (GC 4565)): 4 µg/mL (≈ 2.42 µM)
- MIC Streptococcus pyogenes (GC 4563) (Streptococcus sp.; Streptococcus pyogenes (GC 4563)): 16 µg/mL (≈ 9.69 µM)
- MIC Streptococcus pneumoniae (ATCC 6301) (Streptococcus sp.; strain ATCC 6301): 8 µg/mL (≈ 4.84 µM)
- MIC Streptococcus pneumoniae (GC 1894) (Streptococcus sp.; strain GC 1894): 1 µg/mL (≈ 0.605 µM)
- MIC Streptococcus pyogenes (GC 4563) (Streptococcus sp.; strain GC 4563): 16 µg/mL (≈ 9.69 µM)
- MIC Streptococcus agalactiae (GC 4564) (Streptococcus sp.; strain GC 4564): 8 µg/mL (≈ 4.84 µM)
- MIC Streptococcus pneumoniae (GC 4565) (Streptococcus sp.; strain GC 4565): 4 µg/mL (≈ 2.42 µM)
